Measured values as given in ChEMBL document CHEMBL6109111.
Activity calls are given as the source filed them. No cut-off for these calls is given here.

System: Mus musculus
Assay: Inhibition of morphine-mediated intestinal motility in male Kunming mouse assessed as propulsion function at 4 mg/kg, ip pretreated with compound for 30 mins followed by morphine addition and measured after 30 mins by charcoal gavage based Intestinal motility assay
Assay type: functional, organism-based
Settings: time 60.0 min

C=CCN1CC[C@]23c4c5ccc(O)c4O[C@H]2C(=O)CC[C@@]3(O)[C@H]1C5
Activity: Active
